Laboratory results published in patent US7579439B2, “Modulation of IL-2- and IL-15-mediated T cell responses” (Beth Israel Deaconess Medical Center, Inc., priority 2000, dated 2009).

Columns and labels:
[1] = tested on: IL-15 binding sites on PHA-activated human PBMCs; assay: Cytofluorometric analysis of binding to PBMCs (anti-FLAG biotinylated Ab, streptavidin-RED670); details: flow cytometry
Method: The FLAG-HMK-IL-15 fusion protein, biotinylated anti-FLAG antibody, and streptavidin-RED670 were employed to detect expression of IL-15 binding sites on human PBMCs by cytofluorometric analysis. The PBMCs tested were either freshly isolated or PHA-activated. These cells were washed and incubated with either medium alone or FLAG-HMK-IL-15 followed by anti-FLAG biotinylated Ab and streptavidin-RED670. The stained cells were analyzed by flow cytometry. […] Both activated CD4^+ and CD8^+ cells express IL-15α chains. Activation induced IL-15Rα chains were also detected on CD14^+ (monocyte/macrophage) cells and CD16^+ (natural killer) cells.
PHA-activated PBMCs were washed and incubated with medium alone, or with the FLAG-HMK-IL-15 double mutant. The cells were then incubated with an anti-FLAG biotinylated antibody and stained with streptavidin conjugated to RED670. The stained cells were analyzed by flow cytometry.

[2] = tested on: IL-2Rγ+ BAF-BO3 cell transfectants that express the IL-2Rβ subunit; assay: BAF-BO3 cell proliferation assay (IL-2Rβ transfectants); format: cell-based
Method: (§1) In the next series of experiments, the FLAG-HMK-IL-15 fusion protein was tested to determine whether it could function as a biologically active growth factor.

[3] = tested on: PHA-activated human PBMCs; assay: [3H]-TdR incorporation assay, PHA-activated PBMCs; format: cell-based
Method: as §1

[4] = target: T1, human IL-15Rα subunit (Homo sapiens, UniProt Q13261); assay: Cross-linking of [32P]-FLAG-HMK-IL-15 to PHA-activated PBMCs (DSS, SDS-PAGE autoradiography); format: binding; details: cross-linked with DSS; band lost with molar excess of hIL-15
T1 construct: endogenous in cells
T1 sequence (Q13261 31-267): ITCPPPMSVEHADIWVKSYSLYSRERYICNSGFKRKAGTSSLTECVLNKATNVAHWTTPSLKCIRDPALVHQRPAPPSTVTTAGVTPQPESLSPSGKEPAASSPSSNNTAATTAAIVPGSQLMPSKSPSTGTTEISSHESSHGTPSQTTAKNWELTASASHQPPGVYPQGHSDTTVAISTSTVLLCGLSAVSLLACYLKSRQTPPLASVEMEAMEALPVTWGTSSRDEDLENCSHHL
Method: The purified FLAG-HMK-IL-15 fusion protein was tested to determine whether it interacts with cell surface IL-15 receptors. As described above, [^32P]-FLAG-HMK-IL-15 was added to cultures of PBMCs that were activated by a mitogen, PHA. In order to permanently bind interactive proteins to one another, the chemical cross-linker disuccinimidyl suberate (DSS) was added. The cells were washed, lysed, centrifuged, and detergent-soluble proteins were separated by SDS-PAGE. […] The identity of this band as the IL-15Rα subunit was confirmed by cross-linking experiments conducted in the presence of a molar excess of hIL-15.

[5] = tested on: leukemic cell lines MOLT-14, YT, HuT-102, 2A and 2B; assay: FACS analysis of leukemic cell lines stained with FLAG-HMK-IL-15; format: binding; details: flow cytometry
Method: The cells treated were obtained from the leukemic cell lines MOLT-14, YT, HuT-102, and from cell lines currently being established at Beth Israel Hospital (Boston, Mass.), and named 2A and 2B. The cultured cells were washed and incubated with either medium alone or with medium containing the FLAG-HMK-IL-15 wild-type polypeptide. The cells were then incubated with the biotinylated anti-FLAG antibody and stained with RED670-conjugated streptavidin. The stained cells were analyzed by flow cytometry.

[6] = tested on: parental BAF-BO3 cells transfected with a vector lacking IL-2Rβ chain sequences; assay: BAF-BO3 cell proliferation assay (parental cells, vector lacking IL-2Rβ); format: cell-based; details: parental BAF-BO3 cells lacking IL-2Rβ
Method: In the next series of experiments, the FLAG-HMK-IL-15 fusion protein was tested to determine whether it could function as a biologically active growth factor. […] Thus, FLAG-HMK-IL-15 is a biologically active growth factor that requires expression of IL-2Rβ chains upon target cells in order to stimulate cellular proliferation.

[7] = tested on: T cells at the second cell division in vivo; assay: In vitro proliferation of sorted in vivo dividing T cells (3H-TdR uptake); format: cell-based, mice; details: IL-2 in doses as high as; IL-15 5 ng/ml; 48 hours
Method: CFSE-labeled lymphocytes were stimulated in vivo for three days and cell division was analyzed by examining the CFSE profile. T cells in the second cell division were sorted and cells (1×10^4) were cultured in vitro with IL-2 or IL-15 for two days. Cellular proliferation was determined by ^3H-TdR uptake. The results are presented as the mean CPM±SD of triplicate assays.
Cell sorting and in vitro proliferation assays were carried out as follows. CFSE-labeled cells were prepared from irradiated allogeneic hosts three days after intravenous injection of labeled cells, and cell proliferation in vivo was identified by analysis of the cells' CFSE profile. The second cell division was selected, gated, and sorted with FACS Vantage™. Cells (1×10^4/ml) were resuspended in RPMI 1640 medium with 10% FCS and 1% penicillin and streptomycin, and stimulated with IL-2 (40 μ/ml to 500 μ/ml) or IL-15 (5 ng/ml) for 48 hours. Cells were pulsed with 1 mCi 3H-TdR (Amersham, Boston, Mass.) for 16 hours and ^3H-TdR uptake was determined by scintillation counting (Beckman Instrument, Columbia, Md.).

Row | Substance | binding to PHA activated PBMCs [1] | inhibition of BAF-BO3 proliferation ([2]; 30 μl versus 20 μL of approximately 50 μg/ml) | stimulation of cell proliferation [3] | binding to the IL-15Rα subunit on the surface of mitogen-activated PBMCs [4] | binding to leukemia cells [5] | stimulation of proliferation [6] | stimulation of proliferation ([2]; BAF-BO3 transfectants expressing IL-2Rβ) | T cell proliferation by 3H-TdR uptake [7]
1 | FLAG-HMK-IL-15 double mutant: human IL-15 protein bearing a double mutation (Q149D; Q156D), FLAG-HMK tagged | bind PHA activated human PBMCs was demonstrated | inhibit BAF-BO3 proliferation in a dose-dependent manner |  |  |  |  |  | 
2 | FLAG-HMK-IL-15: IL-15 polypeptide having an N-terminus covalently bound to the 18 amino acid FLAG-HMK-sequence | blocked by a molar excess of rIL-15 |  | proliferate in response to | site specific binding | bind leukemia cells was shown | does not, however, stimulate the proliferation | stimulates proliferation | 
3 | IL-15: recombinant human IL-15 |  |  |  |  |  |  |  | stimulated vigorous cell proliferation
